Source: PubChem BioAssay (NCI)
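Dose response: 5 concentrations. Exposure: 48 h. Format: 96-well plates. Endpoint: linear interpolation; highest concentration if not reached. At the GI50, growth is halved. TGI denotes the concentration required for complete inhibition of growth.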

Experiments:
Experiment in all cases: inhibition of tumour cell growth, NCI panel, 48 h
[1] = tested on: SK-MEL-2 melanoma
[2] = tested on: SNB-19 CNS
[3] = tested on: A498 renal
[4] = tested on: SK-OV-3 ovarian
[5] = tested on: TK-10 renal
[6] = tested on: NCI/ADR-RES ovarian
[7] = tested on: UACC-257 melanoma
[8] = tested on: HCC-2998 colon
[9] = tested on: 786-0 renal
[10] = tested on: HS 578T breast

Row | SMILES | TGI [1] [µM] | TGI [2] [µM] | TGI [3] [µM] | TGI [4] [µM] | TGI [5] [µM] | TGI [6] [µM] | TGI [7] [µM] | TGI [8] [µM] | TGI [9] [µM] | TGI [10] [µM] | GI50 [10] [µM] | GI50 [1] [µM] | GI50 [6] [µM]
1 | COc1ccc(N2C(=O)C3c4[nH]c5ccccc5c4C4C(C)CCCC4C3C2=O)cc1 (stereo not drawn) | > 100 | > 100 | > 100 | > 100 | > 100 | > 100 | > 100 | > 100 | > 63.5 | 96 |  |  | 
2 | Cc1cn(C2CC(OC(c3ccccc3)(c3ccccc3)c3ccccc3)C(COC(c3ccccc3)(c3ccccc3)c3ccccc3)O2)c(=O)[nH]c1=O (stereo not drawn) | > 100 | > 100 | 73.8 | > 100 | > 100 | > 100 | > 100 | > 100 | > 100 | > 100 |  |  | 
3 | CCOC(=O)c1ccc(C(=O)/C(C(=O)OC(C)(C)C)=C2\CCCN2C)n1C | > 100 | > 100 | > 100 | 95.1 | > 100 | > 100 | > 100 | > 100 | > 100 | > 100 |  |  | 
4 | COC(=O)C(CCSC)NC(=O)CSc1nnc(COc2ccc(Cl)cc2)n1-c1ccccc1 (stereo not drawn) | 30.6 | 47.1 | 46.7 | 43.2 | 33.3 | 39.2 | 31.2 | 18.2 | 30 | 55.6 |  |  | 
5 | Cc1ccc(-n2cc(-c3ccc(Cl)cc3)c3c2N=CN2NC(c4ccco4)=NC32)cc1 (stereo not drawn) | 27.5 | 42.6 | 29.2 | 16 | 28.7 | 86.6 | > 100 | > 100 | 17.4 | 7.16 |  |  | 
6 | O=CN(O)CC(=O)O | > 100 | > 100 | > 100 | > 100 | > 100 | > 100 | > 100 | > 100 | > 100 | > 100 |  |  | 
7 | COc1cc(/C=C/C(=O)O)ccc1OS(=O)(=O)O | > 100 | > 100 | > 100 | > 100 | > 100 | > 100 | > 100 | > 100 | > 100 | > 100 |  |  | 
8 | COC(=O)[C@H]1C=C[C@H](OC2OC(COC(C)=O)C(OC(C)=O)C(OC(C)=O)C2OC(C)=O)n2c(=O)n(-c3ccccc3)c(=O)n21 (stereo partly drawn) | 30.6 | 31.3 | 17.6 | 32.6 | 15.4 | 61.8 | 20.6 | 4.55 | 14.7 | 9.59 |  |  | 
9 | COc1cc(/C=C/c2cc(=O)cc(/C=C/c3ccc(O)c(OC)c3)o2)ccc1O | > 100 | > 100 | > 100 | > 100 | > 100 | > 100 | > 100 | > 100 | > 100 | > 100 |  |  | 
10 | CCCC[C@@H]1CCN2C[C@@H](O)[C@@H](O)[C@H]2[C@@H]1O | > 100 | > 100 | > 100 | > 100 | > 100 | > 100 | > 100 | > 100 | > 100 | > 100 |  |  | 
11 | CC1OC(n2cc(F)c(=O)[nH]c2=O)C(O[Si](C)(C)C(C)(C)C)C1O[Si](C)(C)C(C)(C)C (stereo not drawn) | 35.5 | 30.1 | 27.3 | 32 | 22.9 | 27.7 | 33.2 | 28.2 | 27.7 | 40.7 |  |  | 
12 | CCN(CC(=O)O)CC(=O)O | > 100 | > 100 | > 100 | > 100 | > 100 | > 100 | > 100 | > 100 | > 100 | > 100 |  |  | 
13 | CC(O)(C(=O)N(O)c1ccc(Cl)cc1)c1ccc(Cl)cc1 (stereo not drawn) | 50.1 | > 100 | 71.7 | 97.5 | > 100 | 86.6 | 65.1 | 38.7 | > 100 | 62.4 |  |  | 
14 | CC1(C)[C@@H]2C[C@H]1c1cnc(-c3ccccn3)cc1[C@H]2C(O)[C@@H]1c2cc(-c3ccccn3)ncc2[C@H]2C[C@@H]1C2(C)C (stereo partly drawn) | 13 | 15.5 | 6.24 | 14.8 | > 100 | 1.41 | 26 | 20.8 | 4.69 | 37.3 |  |  | 
15 | CC(C)(C)c1ccc2c(c1)OCc1n[nH]c(n1)COc1cc(C(C)(C)C)ccc1OCCOCCO2 | 5.27 | 13.4 | 21.3 | 15.3 | 8.14 | 12.4 | 8 | 13.9 | 16 | 9.16 |  |  | 
16 | CC/C=C\C/C=C\C/C=C\CCCCCCCC(=O)OC(COC(=O)CCCCCCCCCCCCCCCCC)COC1OC(CO)C(O)C(O)C1O (stereo not drawn) | > 25 | > 25 | > 25 | > 25 | > 25 | > 25 | > 25 | > 25 | > 25 | 18.5 |  |  | 
17 | COn1cc(CO)c2ccccc21 | > 100 | > 100 | 3.67 | > 100 | > 46.2 | > 100 | > 70.8 | > 100 | > 100 | > 100 |  |  | 
18 | COc1cc2c(cc1O)CC[n+]1cc3c(OC)c(OC)ccc3cc1-2 | > 100 | > 100 | > 100 | > 100 | > 100 | > 100 | > 100 | > 100 | > 100 | > 100 |  |  | 

Row | SMILES | TGI [1] [µM] | TGI [2] [µM] | TGI [3] [µM] | TGI [4] [µM] | TGI [5] [µM] | TGI [6] [µM] | TGI [7] [µM] | TGI [8] [µM] | TGI [9] [µM] | TGI [10] [µM] | GI50 [10] [µM] | GI50 [1] [µM] | GI50 [6] [µM]
19 | CC(C)Cc1c(C#N)c(C#N)c(N)n1Cc1ccccc1 | > 100 | > 100 | > 100 | > 100 | > 100 | > 100 | > 100 | > 100 | > 100 | > 100 |  |  | 
20 | NNC(=O)c1cccc2c1Oc1ccccc1S2 | > 100 | > 100 | > 100 | > 100 | > 100 | > 100 | > 100 | > 100 | > 100 | > 100 |  |  | 
21 | C=C1CC=CC(C)(C)C1C/C=C(\C)C(O)CBr (stereo not drawn) | > 100 | > 100 | > 100 | > 100 | > 100 | 63.2 | > 100 | > 100 | > 100 | > 100 |  |  | 
22 | CC[P+](C#Cc1ccccc1)(c1ccccc1)c1ccccc1 | 4.3 | 17.5 | 21.2 | 9.43 | 7.09 | > 100 | 4.11 | 4.46 | 4.36 | 7.77 |  |  | 
23 | COc1ccc(/C=N/Nc2nc3ccccc3c(=O)n2-c2ccccc2)c(OCc2ccccc2)c1 | > 100 | > 100 | > 100 | > 100 | > 100 | > 100 | > 100 | > 100 | > 100 | > 100 | > 100 |  | 
24 | OCC1OC(O[C@H]2CN3[C@H](O)[C@@H](O)[C@H](O)[C@H]3C2O)C(O)C(O)C1O (stereo partly drawn) | > 100 | > 100 | > 100 | > 100 | > 100 | > 100 | > 100 | > 100 | > 100 | > 100 |  |  | 
25 | COc1ccc(CCCCl)c(C2=NCCc3ccccc32)c1 | > 100 | > 100 | > 100 | > 100 | > 100 | > 100 | > 100 | > 100 | > 100 | > 100 |  |  | 
26 | COC(=O)C1=C(C(=O)OC)C2(C)CCC(=O)C1O2 (stereo not drawn) | > 10 | > 10 | > 10 | > 10 | > 10 | > 10 | > 10 | > 10 | > 10 | > 10 |  |  | 
27 | NS(=O)(=O)c1nnc(NSc2ccc([N+](=O)[O-])cc2)s1 | > 100 | > 100 | > 100 | > 100 | > 100 | > 100 | > 100 | > 100 | > 100 | > 100 |  |  | 
28 | COC(=O)C1=C(C)N2[C@H](C(=O)O)CS[C@@]2(C)[C@H](C(=O)OC)[C@H]1c1cccc([N+](=O)[O-])c1 | > 100 | > 100 | > 100 | > 100 | > 100 | > 100 | > 100 | > 100 | > 100 | > 100 |  |  | 
29 | O=C(/C=C1\C[C@H]2C=Nc3ccccc3C(=O)N2C1)NCCCCCNC(=O)/C=C1\C[C@H]2C=Nc3ccccc3C(=O)N2C1 | 29.2 | 31.1 | 33.5 | 30.3 | 10.5 | 55.9 | 15.7 | 32.7 | 3.42 | > 67.6 |  |  | 
30 | O=[N+]([O-])c1ccc2nc3c(nc2c1)-c1c2ccccc2cc2cccc-3c12 | 90 | > 54.5 | 2.37 | 60.9 | > 100 | 28.3 | > 94.6 | > 100 | > 100 | 33 |  |  | 
31 | O=C(O)c1cc2ccccc2c(S(=O)(=O)O)c1O | > 100 | > 100 | > 100 | > 100 | > 100 | > 100 | > 100 | > 100 | > 100 | > 100 |  |  | 
32 | COc1cc2nc(-c3c(F)cccc3F)n(Cc3c(F)cccc3F)c2cc1Cc1c(F)cccc1F | > 82.2 | > 100 | > 100 | > 100 | > 100 | > 100 | > 100 | > 100 | > 100 | > 100 |  |  | 
33 | O=c1oc2ccccc2c2nc3ccccc3cc12 | > 100 | 70.3 | 96.4 | > 100 | > 100 | > 100 | > 100 | > 100 | 80.4 | 66.7 |  |  | 
34 | Clc1cccc(C2ON=C(c3ccccc3)N2C23CC4CC(CC(C4)C2)C3)c1Cl (stereo not drawn) | > 10 | > 10 | > 10 | > 10 | > 10 | > 10 | > 10 | > 10 | > 10 | > 10 |  |  | 
35 | COCC(=O)OC1CCn2c1nc1c2C(=O)C(C)=C(NC(C)=O)C1=O (stereo not drawn) | 13.5 | 40.5 | 49.2 | 34.3 | 34.5 | 22.3 | 9.08 | 28.7 | 18.4 | 16.8 |  | 5.34 | 6.89
